From patent US8952024B2, “Herbicidal pyrimidone derivatives” (E I du Pont de Nemours and Company, priority 2009, dated 2015)

What was measured:
Assay type in all cases: in vivo
[1] = system: ducksalad (Heteranthera limosa); assay: Test B flooded paddy test; settings: for Plant response rating, Flood, Ducksalad: 250 g ai/ha, flooded paddy test, visual rating on 0 to 100 scale (0 no effect, 100 complete control) after 13 to 15 days; for Plant response rating, Ducksalad: Flood (flooded paddy test), 13 to 15 days
In short: (§1)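 Each compound is added to standing floodwater (3 cm above soil, maintained) in pots of 2-leaf-stage plants; greenhouse exposure lasts 13–15 d before visual comparison with controls on a 0–100 control scale.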

[2] = system: umbrella sedge (Cyperus difformis); assay: Test B flooded paddy test; settings: for Plant response rating, Flood, Sedge, Umbrella: 250 g ai/ha, flooded paddy test, visual rating on 0 to 100 scale (0 no effect, 100 complete control) after 13 to 15 days; for Plant response rating, Sedge, Umbrella: Flood (flooded paddy test), 13 to 15 days
In short: as §1

rice (Oryza sativa) = assay: Test B flooded paddy test; settings: for Plant response rating, Flood, Rice: 250 g ai/ha, flooded paddy test, visual rating on 0 to 100 scale (0 no effect, 100 complete control) after 13 to 15 days; for Plant response rating, Rice: Flood (flooded paddy test), 13 to 15 days
In short: as §1

[3] = system: barnyardgrass (Echinochloa crus-galli); assay: Test B flooded paddy test; settings: for Plant response rating, Flood, Barnyardgrass: 250 g ai/ha, flooded paddy test, visual rating on 0 to 100 scale (0 no effect, 100 complete control) after 13 to 15 days; for Plant response rating, Barnyardgrass: Flood (flooded paddy test), 13 to 15 days
In short: as §1

[4] = system: morningglory (Ipomoea spp.); assay: Test A pre-/postemergence plant response; settings: for Morningglory plant response rating: visual injury, 0 to 100 scale (0 no effect, 100 complete control), approx. ten days
In short: (§2)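 Pre: directed soil spray on seeded loam/sand blend. Post: same formulation (non-phytotoxic solvent + surfactant) on 2–10 cm plants, 1–2 leaf stage. Greenhouse ~10 d; visual injury score 0–100 vs untreated.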

[5] = system: giant foxtail (Setaria faberii); assay: Test A pre-/postemergence plant response; settings: for Foxtail, Giant plant response rating: visual injury, 0 to 100 scale (0 no effect, 100 complete control), approx. ten days
In short: as §2

[6] = system: pigweed (Amaranthus retroflexus); assay: Test A pre-/postemergence plant response; settings: for Pigweed plant response rating: visual injury, 0 to 100 scale (0 no effect, 100 complete control), approx. ten days
In short: as §2

[7] = system: large crabgrass (Digitaria sanguinalis); assay: Test A pre-/postemergence plant response; settings: for Crabgrass, Large plant response rating: visual injury, 0 to 100 scale (0 no effect, 100 complete control), approx. ten days
In short: as §2

corn (Zea mays) = assay: Test A pre-/postemergence plant response; settings: for Corn plant response rating: visual injury, 0 to 100 scale (0 no effect, 100 complete control), approx. ten days
In short: as §2

[8] = system: velvetleaf (Abutilon theophrasti); assay: Test A pre-/postemergence plant response; settings: for Velvetleaf plant response rating: visual injury, 0 to 100 scale (0 no effect, 100 complete control), approx. ten days
In short: as §2

[9] = system: wheat (Triticum aestivum); assay: Test A pre-/postemergence plant response; settings: for Wheat plant response rating: visual injury, 0 to 100 scale (0 no effect, 100 complete control), approx. ten days
In short: as §2

[10] = system: barnyardgrass (Echinochloa crus-galli); assay: Test A pre-/postemergence plant response; settings: for Barnyardgrass plant response rating: visual injury, 0 to 100 scale (0 no effect, 100 complete control), approx. ten days
In short: as §2

[11] = 62 g ai/ha, scale of 0 to 100 where 0 is no effect and 100 is complete control
[12] = 125 g ai/ha, scale 0 to 100, 0 is no effect, 100 is complete control
[13] = Flood, 31 g ai/ha, scale 0 to 100 (0 no effect, 100 complete control)
[14] = Postemergence, 125 g ai/ha, 0 to 100 scale where 0 is no effect and 100 is complete control
[15] = Preemergence, 125 g ai/ha, 0 to 100 scale, 0 = no effect, 100 = complete control
[16] = Preemergence, 500 g ai/ha, 0 to 100 scale, 0 = no effect, 100 = complete control

## CCCn1c(-c2cccs2)ncc(C(=O)c2cnn(CC)c2O)c1=O [Compound 221]
[1]
  Plant response rating, Flood, Ducksalad: 70
[1]; [11]
  Plant response rating, Ducksalad: 65
[1]; [12]
  Plant response rating, Ducksalad: 70
[1]; [13]
  Ducksalad plant response rating: 20
[2]
  Plant response rating, Flood, Sedge, Umbrella: 75
[2]; [11]
  Plant response rating, Sedge, Umbrella: 60
[2]; [12]
  Plant response rating, Sedge, Umbrella: 75
[2]; [13]
  Sedge, Umbrella plant response rating: 0
Rice (Oryza sativa)
  Plant response rating, Flood, Rice: 15
Rice (Oryza sativa); [11]
  Plant response rating, Rice: 0
Rice (Oryza sativa); [12]
  Plant response rating, Rice: 0
Rice (Oryza sativa); [13]
  Rice plant response rating: 0
[3]
  Plant response rating, Flood, Barnyardgrass: 20
[3]; [11]
  Plant response rating, Barnyardgrass: 0
[3]; [12]
  Plant response rating, Barnyardgrass: 0
[3]; [13]
  Barnyardgrass plant response rating: 0
[4]; [14]
  Plant response rating, Morningglory: 10
[4]; Postemergence, 500 g ai/ha
  Morningglory plant response rating: 20
[4]; [15]
  Plant response rating, Morningglory: 0
[4]; [16]
  Plant response rating, Morningglory: 0
[5]; [14]
  Plant response rating, Foxtail, Giant: 0
[5]; Postemergence, 500 g ai/ha
  Foxtail, Giant plant response rating: 10
[5]; [15]
  Plant response rating, Foxtail, Giant: 0
[5]; [16]
  Plant response rating, Foxtail, Giant: 10
[6]; [14]
  Plant response rating, Pigweed: 40
[6]; Postemergence, 500 g ai/ha
  Pigweed plant response rating: 70
[6]; [15]
  Plant response rating, Pigweed: 0
[6]; [16]
  Plant response rating, Pigweed: 60
[7]; [14]
  Plant response rating, Crabgrass, Large: 10
[7]; Postemergence, 500 g ai/ha
  Crabgrass, Large plant response rating: 20
[7]; [15]
  Plant response rating, Crabgrass, Large: 0
[7]; [16]
  Plant response rating, Crabgrass, Large: 10
Corn (Zea mays); [14]
  Plant response rating, Corn: 0
Corn (Zea mays); Postemergence, 500 g ai/ha
  Corn plant response rating: 20
Corn (Zea mays); [15]
  Plant response rating, Corn: 0
Corn (Zea mays); [16]
  Plant response rating, Corn: 0
[8]; [14]
  Plant response rating, Velvetleaf: 80
[8]; Postemergence, 500 g ai/ha
  Velvetleaf plant response rating: 80
[8]; [15]
  Plant response rating, Velvetleaf: 20
[8]; [16]
  Plant response rating, Velvetleaf: 30
[9]; [14]
  Plant response rating, Wheat: 0
[9]; Postemergence, 500 g ai/ha
  Wheat plant response rating: 0
[9]; [15]
  Plant response rating, Wheat: 0
[9]; [16]
  Plant response rating, Wheat: 0
[10]; [14]
  Plant response rating, Barnyardgrass: 10
[10]; Postemergence, 500 g ai/ha
  Barnyardgrass plant response rating: 20
[10]; [15]
  Plant response rating, Barnyardgrass: 0
[10]; [16]
  Plant response rating, Barnyardgrass: 0

## Cc1ccc(C)c(-n2c(-c3ccccc3)ncc(C(=O)c3cnoc3C3CC3)c2=O)c1 [Compound 222]
[1]
  Plant response rating, Flood, Ducksalad: 65
[1]; [11]
  Plant response rating, Ducksalad: 50
[2]
  Plant response rating, Flood, Sedge, Umbrella: 40
[2]; [11]
  Plant response rating, Sedge, Umbrella: 30
Rice (Oryza sativa)
  Plant response rating, Flood, Rice: 0
Rice (Oryza sativa); [11]
  Plant response rating, Rice: 0
[3]
  Plant response rating, Flood, Barnyardgrass: 0
[3]; [11]
  Plant response rating, Barnyardgrass: 0
[4]; [14]
  Plant response rating, Morningglory: 30
[4]; Postemergence, 500 g ai/ha
  Morningglory plant response rating: 40
[4]; [15]
  Plant response rating, Morningglory: 0
[4]; [16]
  Plant response rating, Morningglory: 40
[5]; [14]
  Plant response rating, Foxtail, Giant: 0
[5]; Postemergence, 500 g ai/ha
  Foxtail, Giant plant response rating: 40
[5]; [15]
  Plant response rating, Foxtail, Giant: 30
[5]; [16]
  Plant response rating, Foxtail, Giant: 60
[6]; [14]
  Plant response rating, Pigweed: 40
[6]; Postemergence, 500 g ai/ha
  Pigweed plant response rating: 70
[6]; [15]
  Plant response rating, Pigweed: 0
[6]; [16]
  Plant response rating, Pigweed: 0
[7]; [14]
  Plant response rating, Crabgrass, Large: 0
[7]; Postemergence, 500 g ai/ha
  Crabgrass, Large plant response rating: 30
[7]; [15]
  Plant response rating, Crabgrass, Large: 20
[7]; [16]
  Plant response rating, Crabgrass, Large: 20
Corn (Zea mays); [14]
  Plant response rating, Corn: 0
Corn (Zea mays); Postemergence, 500 g ai/ha
  Corn plant response rating: 0
Corn (Zea mays); [15]
  Plant response rating, Corn: 0
Corn (Zea mays); [16]
  Plant response rating, Corn: 0
[8]; [14]
  Plant response rating, Velvetleaf: 60
[8]; Postemergence, 500 g ai/ha
  Velvetleaf plant response rating: 90
[8]; [15]
  Plant response rating, Velvetleaf: 0
[8]; [16]
  Plant response rating, Velvetleaf: 60
[9]; [14]
  Plant response rating, Wheat: 0
[9]; Postemergence, 500 g ai/ha
  Wheat plant response rating: 0
[9]; [15]
  Plant response rating, Wheat: 0
[9]; [16]
  Plant response rating, Wheat: 0
[10]; [14]
  Plant response rating, Barnyardgrass: 10
[10]; Postemergence, 500 g ai/ha
  Barnyardgrass plant response rating: 80
[10]; [15]
  Plant response rating, Barnyardgrass: 0
[10]; [16]
  Plant response rating, Barnyardgrass: 60
